# Values quoted from earlier work as cited in patent US8338613B2, “Process for the preparation of bidentate schiff base ruthenium catalysts containing a salicylaldimine-type ligand” (RIMTEC Corporation, priority 2009, dated 2012).
# Settings: in water (for Ag2CO3)
row,pKb,Structure (SMILES)
1,about 3.69,O=C([O-])[O-].[Cu+2] [CuCO3]
2,about 3.69,O=C([O-])[O-].[K+].[K+] [K2CO3]
3,about 3.69,O=C([O-])[O-].[Li+].[Li+] [Li2CO3]
4,about 3.69,O=C([O-])[O-].[Na+].[Na+] [Na2CO3]
